Patent publication US20240206484A1, “METHOD OF DEVELOPMENT OF SELECTIVE PROBIOTIC GROWTH PROMOTORS AND SELECTIVE PATHOGEN GROWTH INHIBITORS FROM KIMCHI FERMENTATION” (Hannip Inc., priority 2022, published 2024)

Legend:
[1] = system: L. plantarum; assay: Impact of lactic acid on the effect of BKE-X1 or BKE-X2 on growth, colonies counted; type: cell-based, Lactobacillus plantarum; settings: lactic acid to reduce pH to 3 or less; 48 hours at 30° C.; vs control
Procedure: (§1) To MRS culture medium (1 mL) in a culture tube (15 mL), saline (9 mL), BKE-X1 or BKE-X2 (500 mg), and kimchi bacteria culture solution (select one of L. mesenteroides and L. plantarum) (0.5 mL) were added. The mixture was vortex stirred and cultured for 48 hours at 30° C. To MRS culture medium (1 mL) in another culture tube (15 mL), saline (9 mL), BKE-X1 or BKE-X2 (500 mg), kimchi bacteria culture solution (select one of L. mesenteroides and L. plantarum) (0.5 mL), and lactic acid (to reduce pH to 3 or less) were added. The mixture was vortex stirred and cultured for 48 hours at 30° C. To MRS culture medium (1 mL) in yet another culture tube (15 mL), saline (9 mL), kimchi bacteria culture solution (select one of L. mesenteroides and L. plantarum) (0.5 mL), and lactic acid (to reduce pH to 3 or less) were added. The mixture was vortex stirred and cultured for 48 hours at 30° C. As the control, to MRS culture medium (1 mL) in yet another culture tube (15 mL), saline (9 mL) and kimchi bacteria culture solution (select one of L. mesenteroides and L. plantarum) (0.5 mL) were added. The mixture was vortex stirred and cultured for 48 hours at 30° C. An aliquot (0.5 mL) was collected from each culture medium and serially diluted to 16,000× using saline solution. […] The colonies were counted and photographed, then compared side by side.

[2] = system: L. mesenteroides; assay: as above; type: cell-based, Leuconostoc mesenteroides; settings: lactic acid to reduce pH to 3 or less; 48 hours at 30° C.; vs control
Procedure: as §1

CC(O)C(=O)O (centres unmarked) [lactic acid]
growth of L. plantarum, lactic acid alone [1]: negligibly promoting | growth of L. mesenteroides, lactic acid alone [2]: negligibly inhibit
